According to ChEMBL document CHEMBL1156713, “NSAIDs revisited: putative molecular basis of their interactions with peroxisome proliferator-activated gamma receptor (PPARgamma)” (Eur J Med Chem, 2008):

How the values were obtained:
[1] = target: T1, Peroxisome proliferator-activated receptor gamma (Homo sapiens) (UniProt P37231); experiment: Activity at PPARgamma in human Caco-2 cells assessed as luciferase activity at 50 uM relative to control; type: cell-based
T1 sequence (whole entry): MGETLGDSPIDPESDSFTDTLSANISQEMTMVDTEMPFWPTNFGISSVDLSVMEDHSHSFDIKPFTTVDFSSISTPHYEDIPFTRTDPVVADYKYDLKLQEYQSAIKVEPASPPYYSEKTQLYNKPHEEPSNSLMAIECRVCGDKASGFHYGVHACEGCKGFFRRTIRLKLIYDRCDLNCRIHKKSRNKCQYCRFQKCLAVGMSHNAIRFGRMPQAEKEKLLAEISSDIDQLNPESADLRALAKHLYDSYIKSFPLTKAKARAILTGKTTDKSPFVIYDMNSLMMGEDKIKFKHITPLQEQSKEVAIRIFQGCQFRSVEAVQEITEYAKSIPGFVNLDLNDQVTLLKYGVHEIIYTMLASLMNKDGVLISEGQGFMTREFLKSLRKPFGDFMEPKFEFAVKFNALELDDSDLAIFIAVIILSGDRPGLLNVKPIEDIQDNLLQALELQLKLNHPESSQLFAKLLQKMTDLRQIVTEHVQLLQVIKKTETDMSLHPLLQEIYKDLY

[2] = Ratio of IC50 for COX1 to IC50 for COX2
[3] = target: T1, Peroxisome proliferator-activated receptor gamma (Homo sapiens); experiment: Activity at PPARgamma in human Caco-2 cells assessed as luciferase activity at 400 uM relative to control; type: cell-based
[4] = target: T1, Peroxisome proliferator-activated receptor gamma (Homo sapiens); experiment: Activity at PPARgamma in human Caco-2 cells assessed as luciferase activity at 100 uM relative to control; type: cell-based
[5] = target: T1, Peroxisome proliferator-activated receptor gamma (Homo sapiens); experiment: Activity at PPARgamma in human Caco-2 cells assessed as luciferase activity at 1000 uM relative to control; type: cell-based
[6] = target: T1, Peroxisome proliferator-activated receptor gamma (Homo sapiens); experiment: Activity at PPARgamma in human Caco-2 cells assessed as luciferase activity at 10000 uM relative to control; type: cell-based

COc1ccc2c(c1)c(CC(=O)O)c(C)n2C(=O)c1ccc(Cl)cc1 showed a fold change (FC) [1] of 6.43.
CSc1ccc(/C=C2/C(C)=C(CC(=O)O)c3cc(F)ccc32)cc1 showed a Ratio IC50 [2] of 0.258.
For CC1=C(CC(=O)O)c2cc(F)ccc2/C1=C\c1ccc(S(C)(=O)=O)cc1, the fold change (FC) [3] was 3.33.
In the case of CC1=C(CC(=O)O)c2cc(F)ccc2/C1=C\c1ccc([S+](C)[O-])cc1 (configuration not stated), the fold change (FC) [4] was 2.51.
Work on CC(C)Cc1ccc(C(C)C(=O)O)cc1 (configuration not stated) yielded a fold change (FC) [5] of 5.81.
Compound CC(=O)Oc1ccccc1C(=O)O has a fold change (FC) [6] of 4.02.
CN1C(C(=O)Nc2ccccn2)=C(O)c2ccccc2S1(=O)=O showed a fold change (FC) [5] of 1.92.
